One test deals with Histone deacetylase 2 (Homo sapiens, UniProt Q92769). As to the kind of experiment: Inhibition of HDAC2 (unknown origin).
The next test has as its system HCT-116. Description: cells. The following applies: Homo sapiens, HCT-116, 72 h.
Test [1] has as its target DNA topoisomerase 2-alpha (Homo sapiens) (UniProt P11388). As to the kind of experiment: Inhibition of Topoisomerase 2 (unknown origin) assessed as impairment of pBR322 DNA decatenation at 100 uM after 30 mins by agarose gel electrophoresis.
The target in a further test is Histone deacetylase 1 (Homo sapiens, UniProt Q13547). Description: Inhibition of human recombinant HDAC1 expressed in baculovirus infected insect high5 cells using Ac-Lys-Tyr-Lys (epsilon-acetyl)-AMC as substrate after 3 to 24 hrs by fluorescence assay.
Sequence of Histone deacetylase 1 (Q13547 whole entry): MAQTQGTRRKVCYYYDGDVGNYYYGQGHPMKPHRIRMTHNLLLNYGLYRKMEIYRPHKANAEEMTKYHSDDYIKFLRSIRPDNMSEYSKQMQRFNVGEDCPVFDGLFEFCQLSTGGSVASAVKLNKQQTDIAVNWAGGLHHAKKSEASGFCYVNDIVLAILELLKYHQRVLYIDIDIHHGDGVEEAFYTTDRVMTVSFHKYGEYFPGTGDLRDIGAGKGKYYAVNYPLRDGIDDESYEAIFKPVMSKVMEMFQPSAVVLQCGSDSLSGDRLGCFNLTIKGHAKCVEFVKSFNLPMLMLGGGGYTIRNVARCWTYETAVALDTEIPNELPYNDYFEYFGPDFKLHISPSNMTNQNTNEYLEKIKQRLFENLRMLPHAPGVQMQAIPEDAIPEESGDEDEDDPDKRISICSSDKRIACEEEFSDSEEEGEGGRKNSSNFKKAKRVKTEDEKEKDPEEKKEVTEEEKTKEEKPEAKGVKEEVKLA
Test [2] concerns the target T1, Protein deacetylase HDAC6 (Homo sapiens, UniProt Q9UBN7).
T1 sequence (Q9UBN7 whole entry): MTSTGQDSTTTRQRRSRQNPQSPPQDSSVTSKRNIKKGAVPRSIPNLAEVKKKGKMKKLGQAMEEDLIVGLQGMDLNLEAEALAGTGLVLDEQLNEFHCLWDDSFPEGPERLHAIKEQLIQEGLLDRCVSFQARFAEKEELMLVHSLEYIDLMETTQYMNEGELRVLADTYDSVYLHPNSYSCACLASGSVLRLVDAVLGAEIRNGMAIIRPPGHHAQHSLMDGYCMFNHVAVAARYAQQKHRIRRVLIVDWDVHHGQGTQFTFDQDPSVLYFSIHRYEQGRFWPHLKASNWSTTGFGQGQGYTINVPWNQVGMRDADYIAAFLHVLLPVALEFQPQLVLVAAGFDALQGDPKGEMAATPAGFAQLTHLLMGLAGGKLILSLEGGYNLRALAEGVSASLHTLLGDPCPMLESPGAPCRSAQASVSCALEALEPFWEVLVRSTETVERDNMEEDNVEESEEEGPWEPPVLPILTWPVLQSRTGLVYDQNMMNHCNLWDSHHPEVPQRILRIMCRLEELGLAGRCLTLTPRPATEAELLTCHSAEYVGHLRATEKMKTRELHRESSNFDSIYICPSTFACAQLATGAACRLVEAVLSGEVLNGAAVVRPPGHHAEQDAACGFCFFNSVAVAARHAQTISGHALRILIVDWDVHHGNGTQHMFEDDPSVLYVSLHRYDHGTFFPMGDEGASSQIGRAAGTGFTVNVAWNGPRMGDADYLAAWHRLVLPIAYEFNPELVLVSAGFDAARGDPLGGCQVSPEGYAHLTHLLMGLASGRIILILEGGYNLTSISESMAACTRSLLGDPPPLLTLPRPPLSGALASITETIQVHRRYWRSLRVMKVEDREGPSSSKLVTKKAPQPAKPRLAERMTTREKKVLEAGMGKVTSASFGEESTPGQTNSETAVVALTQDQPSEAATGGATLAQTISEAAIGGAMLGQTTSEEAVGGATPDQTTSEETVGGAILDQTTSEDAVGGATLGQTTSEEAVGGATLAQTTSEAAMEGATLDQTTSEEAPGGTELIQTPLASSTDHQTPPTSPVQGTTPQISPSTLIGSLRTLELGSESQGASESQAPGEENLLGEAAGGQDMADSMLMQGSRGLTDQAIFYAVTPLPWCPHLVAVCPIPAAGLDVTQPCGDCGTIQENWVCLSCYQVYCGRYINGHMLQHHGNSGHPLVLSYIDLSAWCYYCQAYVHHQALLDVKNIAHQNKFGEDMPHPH
As to the kind of experiment: Inhibition of human recombinant HDAC6 expressed in baculovirus infected insect high5 cells using Boc-Lys (epsilon-acetyl)-AM) as substrate after 3 to 24 hrs by fluorescence assay.

Another test deals with A549. Description: Antiproliferative activity against human A549 cells assessed as cell viability after 72 hrs by MTT assay. The settings on record: A549, 72 h. It counts as functional, cell-based. Background: Tetrazolium assays rely on reduction of a dye to a coloured formazan, in cell work by metabolically active cells.
A further test deals with Histone deacetylase 3 (Homo sapiens, UniProt O15379). Description: Inhibition of human recombinant HDAC3 expressed in baculovirus infected insect high5 cells using Ac-Lys-Tyr-Lys (epsilon-acetyl)-AMC as substrate after 3 to 24 hrs by fluorescence assay.
Sequence of Histone deacetylase 3 (O15379 whole entry): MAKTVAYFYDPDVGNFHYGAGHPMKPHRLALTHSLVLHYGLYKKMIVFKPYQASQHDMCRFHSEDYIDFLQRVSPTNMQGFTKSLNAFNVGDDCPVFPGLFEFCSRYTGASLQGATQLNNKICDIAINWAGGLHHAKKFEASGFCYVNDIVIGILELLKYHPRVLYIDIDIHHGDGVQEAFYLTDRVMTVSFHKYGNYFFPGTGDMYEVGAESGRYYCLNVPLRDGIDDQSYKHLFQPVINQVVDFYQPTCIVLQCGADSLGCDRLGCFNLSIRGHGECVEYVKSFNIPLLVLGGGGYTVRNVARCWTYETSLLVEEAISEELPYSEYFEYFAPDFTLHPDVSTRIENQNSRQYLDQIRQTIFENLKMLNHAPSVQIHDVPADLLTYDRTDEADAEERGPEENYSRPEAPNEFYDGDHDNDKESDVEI

The source made the active and inactive calls. No cut-off for these calls is given here.

Sequence of DNA topoisomerase 2-alpha (Homo sapiens) (P11388 whole entry): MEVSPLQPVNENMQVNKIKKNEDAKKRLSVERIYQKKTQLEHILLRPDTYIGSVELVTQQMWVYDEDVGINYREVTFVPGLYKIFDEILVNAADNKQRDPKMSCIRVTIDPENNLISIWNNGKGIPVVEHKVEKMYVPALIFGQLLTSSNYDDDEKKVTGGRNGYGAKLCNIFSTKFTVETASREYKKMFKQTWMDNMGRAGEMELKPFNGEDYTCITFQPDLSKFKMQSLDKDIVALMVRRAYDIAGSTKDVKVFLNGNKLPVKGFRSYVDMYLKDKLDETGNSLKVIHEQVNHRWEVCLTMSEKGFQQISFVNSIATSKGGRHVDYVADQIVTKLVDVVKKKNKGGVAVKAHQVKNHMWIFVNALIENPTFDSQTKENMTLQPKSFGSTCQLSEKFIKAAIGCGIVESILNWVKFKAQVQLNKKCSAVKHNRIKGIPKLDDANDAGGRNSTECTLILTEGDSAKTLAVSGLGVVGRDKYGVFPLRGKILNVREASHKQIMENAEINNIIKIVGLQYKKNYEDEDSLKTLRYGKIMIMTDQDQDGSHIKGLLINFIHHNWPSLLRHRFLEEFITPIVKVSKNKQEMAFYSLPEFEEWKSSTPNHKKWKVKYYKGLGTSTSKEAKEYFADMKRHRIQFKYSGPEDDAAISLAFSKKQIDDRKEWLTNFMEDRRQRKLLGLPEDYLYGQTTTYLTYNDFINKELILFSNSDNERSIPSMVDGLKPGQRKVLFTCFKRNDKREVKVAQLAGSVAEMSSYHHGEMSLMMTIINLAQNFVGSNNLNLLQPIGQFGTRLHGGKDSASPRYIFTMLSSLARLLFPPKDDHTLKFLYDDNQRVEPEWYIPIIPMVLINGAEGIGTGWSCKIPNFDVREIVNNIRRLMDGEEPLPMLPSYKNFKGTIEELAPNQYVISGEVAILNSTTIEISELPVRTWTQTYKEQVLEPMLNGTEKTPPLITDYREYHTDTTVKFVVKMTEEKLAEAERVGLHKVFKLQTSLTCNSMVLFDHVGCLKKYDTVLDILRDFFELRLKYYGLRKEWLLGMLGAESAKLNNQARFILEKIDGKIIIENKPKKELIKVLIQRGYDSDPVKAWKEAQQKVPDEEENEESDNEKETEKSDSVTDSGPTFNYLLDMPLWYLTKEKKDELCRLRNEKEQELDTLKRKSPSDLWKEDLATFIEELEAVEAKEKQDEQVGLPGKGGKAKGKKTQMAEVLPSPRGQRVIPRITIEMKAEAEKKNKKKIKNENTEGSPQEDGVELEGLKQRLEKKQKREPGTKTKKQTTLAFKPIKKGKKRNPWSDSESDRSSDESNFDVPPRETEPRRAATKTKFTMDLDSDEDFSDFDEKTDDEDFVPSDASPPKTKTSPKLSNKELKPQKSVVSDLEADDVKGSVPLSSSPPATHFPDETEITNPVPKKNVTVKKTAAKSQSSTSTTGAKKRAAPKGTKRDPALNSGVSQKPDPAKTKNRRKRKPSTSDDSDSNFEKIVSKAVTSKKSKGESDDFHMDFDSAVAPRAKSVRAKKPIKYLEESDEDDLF
Sequence of Histone deacetylase 2 (Q92769 whole entry): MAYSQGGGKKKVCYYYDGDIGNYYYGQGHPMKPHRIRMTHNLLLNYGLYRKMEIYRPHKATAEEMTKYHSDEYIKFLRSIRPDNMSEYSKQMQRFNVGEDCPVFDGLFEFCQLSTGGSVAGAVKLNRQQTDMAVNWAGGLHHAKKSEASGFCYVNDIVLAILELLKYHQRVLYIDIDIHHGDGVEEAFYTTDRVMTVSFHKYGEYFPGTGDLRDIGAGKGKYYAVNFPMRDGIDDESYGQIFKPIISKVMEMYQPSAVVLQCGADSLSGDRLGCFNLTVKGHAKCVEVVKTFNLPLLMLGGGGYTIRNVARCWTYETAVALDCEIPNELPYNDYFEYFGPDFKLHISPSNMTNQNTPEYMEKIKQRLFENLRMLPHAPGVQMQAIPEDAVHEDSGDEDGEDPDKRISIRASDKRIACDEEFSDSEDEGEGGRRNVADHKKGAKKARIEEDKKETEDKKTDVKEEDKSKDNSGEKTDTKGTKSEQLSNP
Description for HCT-116: Antiproliferative activity against human HCT116 cells assessed as cell viability after 72 hrs by MTT assay

On to `COc1cc([C@@H]2c3cc4c(cc3[C@@H](Nc3ccc(NC(=O)CCCCCCC(=O)NO)cc3)[C@H]3COC(=O)[C@H]23)OCO4)cc(OC)c1O`, for which the IC50 (as a rule, the concentration that inhibits the measured activity by half) is 0.14 µM against Histone deacetylase 2; 1.27 µM in the test on HCT-116; 0.21 µM on Histone deacetylase 1; 0.09 µM in test [2]; 18.6 µM in the test with A549; 0.23 µM on Histone deacetylase 3. Besides, in test [1], the inhibition entry is “Active”.

(Values after ChEMBL document CHEMBL2439983, “The discovery and optimization of novel dual inhibitors of topoisomerase II and histone deacetylase” (Bioorg Med Chem, 2013).)
